Source: patent US9296704B2, “Substituted pyrimidines as protein kinase inhibitors” (CELGENE AVILOMICS RESEARCH, INC., priority 2007, dated 2016)

What was measured:
[1] = tested on: EGFR (ErbB1) in A431 human epidermoid carcinoma cells; experiment: Washout experiment for EGFR activity in A431 cells; type: cell-based
Description: A431 human epidermoid carcinoma cells were grown in 6-well plates to 90% confluence and then incubated in serum-free media for 18 hr. Duplicate sets of cells were treated with 1 μM designated compound for 1 hr. One set of cells was then stimulated with 100 ng/ml EGF for 5 min, and extracts were made as described. The other set of cells was washed free of the compound with warmed compound-free medium, incubated for 2 hr, washed again, incubated another 2 hr, washed again, and then incubated another 2 hr washed again and incubated for additional 2 hr and then stimulated with EGF.

[2] = molecular target: T1, EGFR wild type (Homo sapiens, UniProt P00533); experiment: Mass spectrometry for EGFR wild type (covalent modification); type: binding; details: 10-fold excess of compound, 1 hr and 3 hrs, MALDI
T1 construct: Amino acids 696 to 1022 of the EGFR-WT kinase domain; six-histidine tag (TEV-cleavable) (C); made in house; host or cells: SF21 insect cells (baculovirus; P1 stocks in SF9)
Description: (§1) Amino acids 696 to 1022 of the EGFR-WT kinase domain (NM_005228, NP_005219.2) was subcloned into the NcoI and HindIII sites of the pFastHTa vector (Invitrogen, Carlsbad, Calif.). To make the EGFR-mutant protein, the cysteine at position 797 was changed to a serine using the Stratagene QuikChange kit (Stratagene, Cedar Creek, Tex.), according to manufacturer's instructions.
(§2) EGFR wild type and EGFR mutant (C797S) was incubated with 10-fold excess of compound I-1 for 1 hr and 3 hrs. 1 ul aliquots of the samples (total volume 5-8 ul) were diluted with 10 ul of 0.1% TFA prior to micro C4 ZipTipping directly onto the MALDI target using Sinapinic acid as the desorption matrix (10 mg/ml in 0.1% TFA:Acetonitrile 50:50). […] (See FIG. 8).

[3] = molecular target: T2, EGFR mutant (C797S) (Homo sapiens, UniProt P00533, C797S); experiment: Mass spectrometry for EGFR mutant (C797S); type: binding; details: 10-fold excess of compound, up to 3 hrs, MALDI
T2 construct: Amino acids 696 to 1022 of the EGFR-WT kinase domain; six-histidine tag (TEV-cleavable) (C); made in house; host or cells: SF21 insect cells (baculovirus; P1 stocks in SF9)
Description: as §1, §2

For C=CC(=O)Nc1cccc(Nc2cc(Nc3cccc(Br)c3)ncn2)c1 [I-1, N-{3-[6-(3-bromophenylamino)-pyrimidin-4-ylamino]-phenyl}-2-propenamide], the “enzyme inhibition after washout” value ([1]; A431 cells, 1 μM for 1 hr, washout, EGF stimulation) was “maintains enzyme inhibition”, the “type of binding to ErbB1 (irreversible / reversible)” value ([1]; washout experiment, FIG. 2) was “irreversibly binds to ErbB1” and the “reactivity with EGFR wild type by intact mass” value [2] was “single site covalent modification”. The “reactivity with EGFR mutant (C797S) by intact mass” value [3] was “no significant reactivity”.
